For 14 molecules, IC50, cytotoxicity and inhibition results are on record in ChEMBL document CHEMBL5385927, “Chemical and Antiplasmodial Investigations on Eremophila-Derived Alkaloids and Semisynthetic Ether Analogues” (J Nat Prod, 2024).

Data set [1] deals with Plasmodium falciparum. As to the kind of experiment: Antiplasmodial activity against choloroquine-sensitive ring stage of Plasmodium falciparum 3D7 assessed as inhibition of parasite growth measured after 72 hrs by DAPI staining based analysis. The settings on record: 3D7, 72 h. Format: functional, organism-based.
Data set [2] can be described thus: Cytotoxicity against human HEK293 cells assessed as inhibition of cell viability measured after 66 hrs by Alamar Blue dye based fluorescence analysis. Format: toxicity.
Data set [3] is described as follows: Cytotoxicity against human HEK293 cells assessed as inhibition of cell viability at 80 uM measured after 66 hrs by Alamar Blue dye based fluorescence analysis. Format: toxicity. The conditions noted are these: read-out: INH.
In data set [4] the test system is Plasmodium falciparum. As to the kind of experiment: Antiplasmodial activity against choloroquine-sensitive ring stage of Plasmodium falciparum 3D7 assessed as inhibition of parasite growth at 40 uM measured after 72 hrs by DAPI staining based analysis. The data set is classed as functional.

On to `CC(C)=CCCc1cnc2c(C)cc(OCc3ccccc3)c3c2c1CC[C@H]3C`, for which, in data set [1], the IC50 is 7.6 µM. For the same molecule, the half-maximal inhibitory concentration (IC50) at 66 h in data set [2] is 30.8 µM.

On to `CC(C)=CCCc1cnc2c(C)cc(O)c3c2c1CC[C@H]3C`, for which the IC50 in data set [1] was 8.9 µM. The cytotoxicity at 66 h, 80 µM in data set [3] came to 92%.

On to `CC(C)=CCCc1cnc2c(C)cc(OCc3ccc(Br)cc3)c3c2c1CC[C@H]3C`, for which the half-inhibitory concentration (IC50) in data set [1] came out at 9.7 µM. In data set [2], the IC50 at 66 h worked out at 40.7 µM.

For `CC(C)=CCCc1cnc2c(C)cc(OC3CCCCC3)c3c2c1CC[C@H]3C`, the inhibition at 40 µM in data set [4] came out at 93%. For the same molecule, the cytotoxicity at 66 h, 80 µM in data set [3] came to 23%.

As for `CC(C)=CCCc1cnc2c(C)cc(O)c3c2c1[C@H](O)C[C@H]3C`, in data set [4], the inhibition at 40 µM was found to be 78%. Besides, in data set [3], the cytotoxicity at 66 h, 80 µM was 14%.

Turning to `CC(C)=CCCc1cnc2c(C)cc(OCc3cc(F)ccc3F)c3c2c1CC[C@H]3C`, the 50% inhibitory concentration (IC50) in data set [1] stood at 8 µM. The IC50 at 66 h in data set [2] is 31.4 µM.

Consider `COc1ccc(C[C@H](N)C(=O)N[C@H]2[C@@H](O)[C@H](n3cnc4c(N(C)C)ncnc43)O[C@@H]2CO)cc1` [PUROMYCIN], for which the IC50 in data set [1] worked out at 0.033 µM. Further, the IC50 at 66 h in data set [2] was found to be 0.49 µM.

As to `C=CCOc1cc(C)c2ncc(CCC=C(C)C)c3c2c1[C@H](C)CC3`, the half-inhibitory concentration (IC50) in data set [1] was determined as 13.1 µM. Moreover, in data set [3], the cytotoxicity at 66 h, 80 µM amounted to 85%.

As to `C[C@H]1[C@@H](O)O[C@@H]2O[C@@]3(C)CC[C@H]4[C@H](C)CC[C@@H]1[C@@]24OO3` [ARTENIMOL], in data set [1], the IC50 is 0.021 µM.

For the molecule `CC(C)=CCCc1cnc2c(C)cc(OCc3cccc(Cl)c3)c3c2c1CC[C@H]3C`, in data set [1], the half-maximal inhibitory concentration (IC50) stood at 11 µM. Besides, in data set [3], the cytotoxicity at 66 h, 80 µM was determined as 65%.

As for `CC(C)=CCCc1cnc2c(C)cc(OC3CCCC3)c3c2c1CC[C@H]3C`, the IC50 in data set [1] worked out at 12.5 µM. In addition, the cytotoxicity at 66 h, 80 µM in data set [3] was determined as 83%.

On to `CC(C)=CCCc1cnc2c(C)cc(OCc3cccc([N+](=O)[O-])c3)c3c2c1CC[C@H]3C`, for which, in data set [1], the IC50 stood at 13.1 µM. Further, the cytotoxicity at 66 h, 80 µM in data set [3] was 7%.

Consider `CC(C)=CCCc1cnc2c(C)cc(OCc3ccccc3-c3ccccc3)c3c2c1CC[C@H]3C`, for which the IC50 in data set [1] was found to be 8 µM. For the same molecule, the cytotoxicity at 66 h, 80 µM in data set [3] was found to be 94%.

Regarding `CC(C)=CCCc1cnc2c(C)cc(OCc3cccc(Br)c3)c3c2c1CC[C@H]3C`, the IC50 in data set [1] is 7.2 µM. In data set [2], the IC50 at 66 h turned out to be 39.3 µM.
